# Measurements: DBAASP
# Assays:
# Assay in all cases: ≥ marks a high value that may be exact or a test limit, other limits are often not marked, values filed in µg/mL are converted to µM
# [1] = test system: Candida albicans ATCC 10231
# [2] = test system: Escherichia coli ATCC 25922
# [3] = test system: Pseudomonas aeruginosa ATCC 9027
# Bacillus subtilis = test system: Bacillus subtilis
# Klebsiella pneumoniae = test system: Klebsiella pneumoniae
# [4] = test system: Salmonella typhimurium KCTC 1926
# [5] = test system: Pseudomonas aeruginosa KCTC 1637
# [6] = test system: Staphylococcus epidermidis KCTC 1917
# [7] = test system: Staphylococcus aureus KCTC 1621
# [8] = test system: Escherichia coli KCTC 1682
# [9] = test system: Bacillus subtilis KCTC 3068
# [10] = test system: Pseudomonas aeruginosa ATCC 27853
# Escherichia coli K-12 = test system: Escherichia coli K-12
# [11] = test system: Staphylococcus aureus ATCC 6538
# [12] = test system: Escherichia coli NCTC 10418
# Candida albicans = test system: Candida albicans
# [13] = test system: Staphylococcus aureus ATCC 25923
# [14] = test system: Salmonella enterica serovar Typhimurium
# [15] = test system: Pseudomonas aeruginosa PAO1
MIC [2] [µM],MIC [4] [µM],MIC [5] [µM],MIC [6] [µM],MIC [7] [µM],MIC [8] [µM],also measured,Structure (SMILES)
8580,,,,,,MIC [1]: 4290 µM; MIC [3]: 68700 µM,N[C@@H](CC(=O)O)C(=O)N[C@@H](CC(=O)O)C(=O)N[C@@H](CC(=O)O)C(=O)N[C@@H](Cc1ccc(O)cc1)C(=O)O [DDDY]
,,,,,,MIC (Bacillus subtilis): 1 µM; MIC (Klebsiella pneumoniae): 10 µM,CC[C@H](C)[C@H](NC(=O)[C@H](C)NC(=O)[C@H](CCCCN)NC(=O)[C@H](C)NC(=O)[C@H](CCSC)NC(=O)CNC(=O)CNC(=O)[C@H](CC(C)C)NC(=O)[C@@H](NC(=O)[C@@H](NC(=O)[C@H](CC(N)=O)NC(=O)CNC(=O)[C@H](CCSC)NC(=O)[C@H](CCCN=C(N)N)NC(=O)[C@H](CCC(=O)O)NC(=O)[C@H](CC(=O)O)NC(=O)[C@@H](NC(=O)[C@H](CCCCN)NC(=O)[C@H](CCCCN)NC(=O)[C@H](CCC(N)=O)NC(=O)[C@@H](NC(=O)[C@H](CCCCN)NC(=O)[C@H](CCC(=O)O)NC(=O)[C@H](CCC(=O)O)NC(=O)[C@H](CC(N)=O)NC(=O)[C@@H](NC(=O)[C@H](Cc1c[nH]c2ccccc12)NC(=O)CN)[C@@H](C)CC)[C@@H](C)CC)[C@@H](C)CC)[C@@H](C)O)C(C)C)C(=O)N[C@H](C(=O)N[C@@H](Cc1cnc[nH]1)C(=O)N[C@@H](CCCCN)C(=O)N[C@@H](CCSC)C(=O)N[C@@H](C)C(=O)N[C@@H](CCCCN)C(=O)N[C@@H](CC(N)=O)C(=O)N[C@@H](CCC(=O)O)C(=O)N[C@@H](Cc1ccccc1)C(=O)N[C@@H](CCC(N)=O)C(=O)N[C@H]1CSSC[C@@H]2NC(=O)[C@H](Cc3ccc(O)cc3)NC(=O)CNC(=O)[C@H](CCCCN)NC(=O)[C@H](CCC(=O)O)NC(=O)CNC(=O)[C@H](CO)NC(=O)[C@H]([C@@H](C)O)NC(=O)[C@H](CCC(N)=O)NC(=O)[C@@H]3CSSC[C@@H](C(=O)NCC(=O)N[C@H](C(=O)N4CCC[C@H]4C(=O)N[C@@H](CC(C)C)C(=O)N[C@@H](CO)C(=O)N[C@@H](Cc4ccc(O)cc4)C(=O)O)[C@@H](C)O)NC(=O)[C@H](CCCCN)NC(=O)[C@H](CSSC[C@H](NC(=O)[C@H](CC(N)=O)NC(=O)CNC(=O)[C@H](CC(C)C)NC(=O)[C@H](CCSC)NC(=O)[C@H](CC(=O)O)NC(=O)[C@H](CCSC)NC(=O)[C@H](CC(N)=O)NC(=O)[C@H](C)NC(=O)[C@H](CCSC)NC1=O)C(=O)N[C@@H](CCC(=O)O)C(=O)N[C@@H](CCCCN)C(=O)N[C@@H](Cc1cnc[nH]1)C(=O)N3)NC(=O)[C@H](CCCCN)NC(=O)[C@H]([C@@H](C)O)NC(=O)CNC(=O)[C@H](Cc1cnc[nH]1)NC2=O)C(C)C [GWINEEKIQKKIDERMGNTVLGGMAKAIVHKMAKNEFQCMANMDMLGNCEKHCQTSGEKGYCHGTKCKCGTPLSY]
,1,2,1,2,2,,CC[C@H](C)[C@H](N)C(=O)N[C@@H](CC(C)C)C(=O)NCC(=O)N[C@@H](CCCCN)C(=O)N[C@H](C(=O)N[C@@H](CC(C)C)C(=O)N[C@@H](CCCCN)C(=O)NCC(=O)N[C@H](C(=O)N[C@@H](CCCCN)C(=O)N[C@@H](CCCCN)C(=O)N[C@@H](CC(C)C)C(=O)N[C@@H](Cc1ccccc1)C(N)=O)[C@@H](C)CC)[C@@H](C)CC [ILGKILKGIKKLF]
,2,4,1,2,2,MIC [9]: 1 µM,NCCCC[C@H](NC(=O)[C@H](CCCCN)NC(=O)[C@H](Cc1c[nH]c2ccccc12)NC(=O)[C@H](CCCCN)NC(=O)[C@@H]1CCCN1C(=O)[C@H](Cc1c[nH]c2ccccc12)NC(=O)[C@H](Cc1c[nH]c2ccccc12)NC(=O)[C@@H]1CCCN1C(=O)[C@H](CCCCN)NC(=O)[C@H](Cc1c[nH]c2ccccc12)NC(=O)[C@H](Cc1c[nH]c2ccccc12)NC(=O)[C@@H]1CCCN1C(=O)[C@H](CCCCN)NC(=O)[C@@H](N)CCCCN)C(=O)O [KKPWWKPWWPKWKK]
,,,,,,MIC [10]: > 3 µM; MIC (Escherichia coli K-12): 3 µM; MIC [11]: > 12 µM,CC[C@H](C)[C@H](NC(=O)[C@H](CCCCN)NC(=O)[C@H](CCCCN)NC(=O)[C@H](Cc1ccccc1)NC(=O)[C@H](C)NC(=O)[C@H](CCCCN)NC(=O)[C@H](Cc1c[nH]c2ccccc12)NC(=O)[C@@H](N)CCCCN)C(=O)N[C@@H](CCC(=O)O)C(=O)N[C@@H](CCCCN)C(=O)N[C@@H](CCSC)C(=O)N[C@H](C(=O)N[C@@H](CCCN=C(N)N)C(=O)N[C@@H](CC(N)=O)C(=O)N[C@H](C(=O)N[C@@H](CCCN=C(N)N)C(=O)N[C@@H](CC(N)=O)C(=O)N[C@@H](CCCCN)C(=O)N[C@H](C(=O)N[C@H](C(=O)N[C@@H](CCCCN)C(N)=O)C(C)C)[C@@H](C)CC)[C@@H](C)CC)[C@@H](C)CC [KWKAFKKIEKMIRNIRNKIVK]
,,,,,,MIC (Escherichia coli K-12): ≥ 250 µM,CC[C@H](C)[C@H](NC(=O)[C@H](CCCN=C(N)N)NC(=O)[C@H](CCC(N)=O)NC(=O)[C@@H](NC(=O)[C@@H](NC(=O)[C@H](CCCN=C(N)N)NC(=O)[C@H](CCCCN)NC(=O)[C@H](Cc1ccccc1)NC(=O)[C@H](CC(=O)O)NC(=O)CNC(=O)[C@H](CC(C)C)NC(=O)[C@@H](N)CC(C)C)[C@@H](C)CC)C(C)C)C(=O)N[C@@H](CCCCN)C(=O)N[C@@H](CC(=O)O)C(=O)N[C@@H](Cc1ccccc1)C(N)=O [LLGDFKRIVQRIKDF]
,15.1,15.1,15.1,15.1,30.3,MIC [9]: 30.3 µM,CC[C@H](C)[C@H](NC(=O)[C@H](CCCN=C(N)N)NC(=O)[C@H](Cc1c[nH]c2ccccc12)NC(=O)[C@H](CC(C)C)NC(=O)[C@@H](N)CCCN=C(N)N)C(=O)N[C@H](C(=O)N[C@H](C(=O)N[C@H](C(=O)N[C@@H](CCCN=C(N)N)C(=O)N[C@H](C(=O)N[C@@H](Cc1c[nH]c2ccccc12)C(=O)N[C@@H](CCCN=C(N)N)C(N)=O)C(C)C)[C@@H](C)CC)C(C)C)C(C)C [RLWRIVVIRVWR]
,,,,,,MIC [12]: ≥ 35 µM,CC[C@H](C)[C@H](NC(=O)CNC(=O)[C@@H]1CCCN1C(=O)[C@@H]1CCCN1C(=O)[C@H](Cc1ccccc1)NC(=O)[C@H](Cc1ccccc1)NC(=O)[C@@H]1CCCN1C(=O)[C@H](Cc1ccccc1)NC(=O)[C@@H](N)CO)C(=O)N[C@H]1CSSC[C@@H](C(=O)O)NC(=O)[C@H](CCCN=C(N)N)NC(=O)[C@H](CCCCN)NC(=O)[C@H](CC(C)C)NC(=O)[C@H](CCCN=C(N)N)NC(=O)[C@H](CCCCN)NC1=O [SFPFFPPGICKRLKRC]
47.5,,,,,,MIC (Candida albicans): > 190 µM; MIC [13]: 190 µM; MIC (Klebsiella pneumoniae): > 190 µM,CC[C@H](C)[C@H](NC(=O)CNC(=O)[C@H](CC(N)=O)NC(=O)[C@@H](NC(=O)[C@H](C)NC(=O)[C@H](CC(N)=O)NC(=O)[C@H](CC(C)C)NC(=O)[C@H](C)NC(=O)[C@H](C)NC(=O)[C@H](CCCN=C(N)N)NC(=O)CNC(=O)[C@H](C)NC(=O)[C@H](C)NC(=O)[C@H](C)NC(=O)[C@H](C)NC(=O)[C@H](CCSC)NC(=O)[C@H](CC(=O)O)NC(=O)[C@H](CCCCN)NC(=O)[C@@H](NC(=O)[C@H](CO)NC(=O)[C@H](CO)NC(=O)[C@H](Cc1c[nH]c2ccccc12)NC(=O)[C@H](CC(C)C)NC(=O)[C@@H](N)CO)[C@@H](C)CC)C(C)C)C(=O)N[C@H](C(=O)N[C@@H](CC(N)=O)C(=O)N1CCC[C@H]1C(N)=O)C(C)C [SLWSSIKDMAAAAGRAALNAVNGIVNP]
44.4,,,,,,MIC [14]: ≥ 44.4 µM; MIC [15]: 44.4 µM; MIC [13]: 22.2 µM,CC[C@H](C)[C@H](NC(=O)[C@H](CCCN=C(N)N)NC(=O)[C@H](Cc1c[nH]c2ccccc12)NC(=O)[C@H](CS)NC(=O)[C@@H](N)C(C)C)C(=O)N[C@@H](CCCN=C(N)N)C(=O)N[C@H](C(=O)N[C@@H](C)C(=O)N[C@H](C(=O)N[C@H](C(=O)N[C@@H](CCCN=C(N)N)C(=O)N[C@@H](C)C(=O)O)[C@@H](C)CC)C(C)C)C(C)C [VCWRIRVAVIRA]
